According to the supplement of paper PMC3974653:
Structures can show the parent of a compound that is named as a salt.

Tested on: MTT (mouse pheochromocytoma)
Assay: IC50 of cell viability (ATP content)
Settings: (24 or 48 h)
Outline: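 MTT mouse pheochromocytoma cells in white 1536-well plates were treated for 24 or 48 hrs with library compounds at 8 final concentrations from 0.5 nM to 46 µM. ATP content was measured with CellTiter-Glo luminescence, using positive-control wells as 100% and DMSO wells as 0%. IC50 came from a four-parameter logistic fit.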

IC50 of cell viability [µM] | SMILES
> 46 | C[C@@]12CC[C@H]3[C@@H](CC\C4=C\C(=O)CC[C@@]34C)[C@H]1CC[C@H]2C(=O)CO [Deoxycorticosterone]
> 46 | C[C@]12CC[C@H]3c4ccc(O)cc4CC[C@@H]3[C@H]1CC[C@@H]2OC(=O)CCC1CCCC1 [Depoestradiol]
> 46 | CCCCNc1ccc(C(=O)OCC[NH+](CC)CC)cc1 [Depolipon]
> 46 | CNCCCN1c2ccccc2CCc2ccccc21 [Desipramine hydrochloride]
> 46 | ClC1=CC=C2C(CCC3=C(N=CC=C3)\C2=C4\CCNCC4)=C1 [Desloratadine]
> 46 | C[C@@H]1C[C@H]2[C@@H]3CCC/4=C/C(=O)/C=C\[C@]4(C)[C@@]3(F)[C@@H](O)C[C@]2(C)[C@H]1C(=O)CO [Desoximetasone]
> 46 | N[C@@H](Cc1cc(I)c(Oc2ccc(O)c(I)c2)c(I)c1)C(=O)O [Detrothyronin]
> 46 | C[C@@H]1C[C@@H]2[C@H]3CC\C4=C\C(=O)\C=C/[C@]4(C)[C@]3(F)[C@@H](O)C[C@@]2(C)[C@@]1(O)C(=O)COC(C)=O [Dexamethasone acetate]
> 46 | CN(C)CC[C@@H](c1ccc(Br)cc1)c1ccccn1 [Dexbrompheniramine maleate salt]
> 46 | CC(C)Cc1ccc([C@H](C)C(=O)O)cc1 [Dexibuprofen]
> 46 | CC(=O)Nc1ccc(OC(C)=O)cc1 [Diacetamate]
> 46 | CC(=O)Nc1ccc(OCCOCCOc2ccc(NC(C)=O)cc2)cc1 [Diamfenetida]
> 46 | CC(=O)Nc1c(I)c(NC(C)=O)c(I)c(C(=O)O)c1I [Diatrizoic acid dihydrate]
> 46 | CN(Cc1ccccc1)Cc1ccccc1 [Dibemethine]
> 46 | CN(C)CCN1C(=O)c2ccccc2N(C)c2ccccc21 [Dibenzepina]
> 46 | N=C(N)c1ccc(OCCCOc2ccc(C(=N)N)cc2Br)c(Br)c1 [Dibromopropamidine Dihydrochloride]
> 46 | CCCCOc1cc(C(=O)NCCN(CC)CC)c2ccccc2n1 [Dibucaine]
> 46 | CC(C)(C)c1ccc2c(S(=O)(=O)[O-])c(C(C)(C)C)ccc2c1 [Dibunic acid]
> 46 | NCCN.[Cl-].[Cl-].[Pt+2] [Dichloro(ethylenediamine)platinum(II)]
> 46 | N[S+](=O)([O-])c1cc(Cl)c(Cl)c([S+](N)(=O)[O-])c1 [Dichlorphenamide]
> 46 | Cc1onc(-c2c(Cl)cccc2Cl)c1C(=O)N[C@@H]1C(=O)N2[C@@H]1SC(C)(C)[C@@H]2C(=O)[O-] [Dicloxacillin sodium salt monohydrate]
> 46 | O\C1=C(/C/C2=C(\O)C3=C(OC2=O)C=CC=C3)C(=O)OC4=C1C=CC=C4 [Dicumarol]
> 46 | CCN(CC)CCOC(=O)C1(C2CCCCC2)CCCCC1 [Dicyclomine]

IC50 of cell viability [µM] | SMILES
> 46 | OC[C@@H]1CC[C@H](n2cnc3c(O)ncnc32)O1 [Didanosine]
> 46 | C/C=C(\C(=C\C)c1ccc(O)cc1)c1ccc(O)cc1 [Dienestrol]
> 46 | NCCNCCN [Diethylenetriamine]
> 46 | NC(=O)Oc1ccc(Cc2ccccc2)cc1 [Difenano]
> 46 | C[C@H]1C[C@H]2[C@@H]3C[C@H](F)C/4=C/C(=O)/C=C\[C@]4(C)[C@@]3(F)[C@@H](O)C[C@]2(C)[C@@]1(OC(C)=O)C(=O)COC(C)=O [Diflorasone diacetate]
> 46 | O=C(O)c1cc(-c2ccc(F)cc2F)ccc1O [Diflunisal]
> 46 | O=C1c2ccccc2CN2C(=O)c3ccccc3CN12 [Diftalone]
> 46 | C[C@H]1O[C@H](C[C@H](O)[C@@H]1O)O[C@H]2[C@@H](O)C[C@@H](O[C@@H]2C)O[C@H]3[C@@H](O)C[C@@H](O[C@@H]3C)O[C@H]4CC[C@@]5(C)[C@H](CC[C@@H]6[C@@H]5C[C@@H](O)[C@]7(C)[C@H](CC[C@]67O)C/8=C/C(=O)OC8)C4 [Digoxin]
> 46 | C=Cc1ccc(C=C)cc1.C=Cc1ccccc1.CC(C)N(Cc1ccccc1)C(C)C [Diisopropylaminomethyl-polystyrene]
> 46 | CC1(C)OC[C@@H]2O[C@@]3(C(=O)O)OC(C)(C)O[C@@H]3[C@@H]2O1 [Dikegulac]
> 46 | CN(C(=O)C(Cl)Cl)c1ccc(OC(=O)c2ccco2)cc1 [Diloxanide furoate]
> 46 | CC(O)CN(C)C (stereo not drawn) [Dimepranolum]
> 46 | CN(C)CCCN1c2ccccc2C(C)(C)c2ccccc21 [Dimetacrine]
> 46 | CCCCc1cc2ccccc2c(OCCN(C)C)n1 [Dimethisoquin hydrochloride]
> 46 | CC(CN1c2ccccc2Sc2ccc([S+](=O)([O-])N(C)C)cc21)N(C)C (stereo not drawn) [Dimethothiazine]
> 46 | Nc1ccc(C(=O)Nc2ccccc2N)cc1 [Dinaline]
> 46 | CCCCC[C@H](O)/C=C\[C@H]1[C@H](C/C=C\CCCC(=O)O)[C@@H](O)C[C@H]1O.COC(N)(CO)CO [Dinoprost trometamol]
> 46 | CCCCC[C@H](O)/C=C/[C@@H]1[C@@H](C/C=C\CCCC(=O)O)[C@@H](O)C[C@H]1O [Dinoprost tromethamine]
> 46 | O=[N+]([O-])c1cccc([S+](=O)([O-])NCCN[S+](=O)([O-])c2cccc([N+](=O)[O-])c2)c1 [Dinsed]
> 46 | CCCC[C@@H](CC)COC(=O)C[C@H](C(=O)OC[C@H](CC)CCCC)S(=O)(=O)[O-] [Dioctyl sulfosuccinate sodium salt]
> 46 | COc1ccc(C(=O)c2ccccc2O)c(O)c1 [Dioxybenzone]
> 46 | O=C(Nc1ccccc1)OC[C@H](CN1CCCCC1)OC(=O)Nc1ccccc1 [Diperodon hydrochloride]

SMILES | IC50 of cell viability [µM]
CN1[C@@H]2CC[C@@H]1CC(OC1c3ccccc3CCc3ccccc31)C2.O=C(O)CC(O)(CC(=O)O)C(=O)O (stereo partly drawn) [Deptropine citrate] | > 46
ClC1=CC=C2NC(=O)C\N=C(\C3=CC=CC=C3)C2=C1 [Desmethyldiazepam] | > 46
Cc1cccc(Cc2c[nH]cn2)c1C [Detomidine] | > 46
Br.COc1ccc2c(c1)[C@]13CCCC[C@@H]1[C@H](C2)N(C)CC3.O [Dextromethorphan hydrobromide monohydrate] | > 46
CN1CC[C@@]23CCCC[C@@H]2[C@@H]1Cc1ccc(O)cc13 [Dextrorphan tartrate] | > 46
CCCCC(CC)COC(=O)c1ccccc1C(=O)OCC(CC)CCCC (stereo not drawn) [Di(2-ethylhexyl) phthalate] | > 46
CN1C(=O)CN=C(c2ccccc2)c2cc(Cl)ccc21 [Diazepam] | > 46
CCOP(=S)(OCC)Oc1cc(C)nc(C(C)C)n1 [Diazinon] | > 46
O=C(O)C(Cl)Cl [Dichloroacetic acid] | > 46
COP(=O)(OC)OC=C(Cl)Cl [Dichlorvos (Vapona)] | > 46
O=C(NC(O)C(Cl)(Cl)Cl)NC(O)C(Cl)(Cl)Cl (stereo not drawn) [Dicloralurea] | > 46
C1CCC(NC2CCCCC2)CC1 [Dicyclohexylamine] | > 46
C1\C=C/C2C\3CC(\C=C3)C12 (stereo not drawn) [Dicyclopentadiene] | > 46
S=C(SSC(=S)N1CCCCC1)N1CCCCC1 [Dicyclopentamethylenethiuram disulfide] | > 46
ClC/1=C(Cl)/[C@@]2(Cl)[C@H]3[C@H]4C[C@H]([C@@H]5O[C@H]45)[C@H]3[C@]1(Cl)C2(Cl)Cl [Dieldrin] | > 46
CCOC(=O)c1ccccc1C(=O)OCC [Diethyl phthalate] | > 46
CCN(CC)C(=O)N1CCN(C)CC1.O=C(O)CC(O)(CC(=O)O)C(=O)O [Diethylcarbamazine citrate] | > 46
COCCOCCO [Diethylene glycol monomethyl ether] | > 46
CC1OC(OC2C(O)CC(OC3C(O)CC(OC4CCC5(C)C(CCC6C5CCC5(C)C(C7=CC(=O)OC7)CCC65O)C4)OC3C)OC2C)CC(O)C1O (stereo not drawn) [Digitoxin] | > 46
CC(C)CC1C(=O)N2CCCC2C2(O)OC(NC(=O)C3CC4c5cccc6[nH]cc(c56)CC4N(C)C3)(C(C)C)C(=O)N12 (stereo not drawn) [Dihydroergocriptine] | > 46
CC(C)[C@@]1(NC(=O)[C@@H]2C[C@@H]3c4cccc5[nH]cc(c45)C[C@H]3N(C)C2)O[C@@]2(O)[C@@H]3CCCN3C(=O)[C@H](Cc3ccccc3)N2C1=O [Dihydroergocristine] | > 46
COc1ccc2c3c1OC1[C@H](O)CCC4[C@@H](C2)N(C)CC[C@]314 (stereo partly drawn) [Dihydroisocodeine] | > 46
CN1CC[C@]23c4c5ccc(O)c4OC2C(O)CCC3[C@H]1C5 (stereo partly drawn) [Dihydromorphine] | > 46
CC(C)NC(C)C [Diisopropyl amine] | > 46
Cc1ccc2c(c1)[C@]13CCCC[C@@H]1[C@@H](C2)N(C)CC3 [Dimemorfan phosphate] | > 46
COC(=O)C(Cl)C(=O)OC [Dimethyl chloromalonate] | > 46
COC(=O)c1ccccc1C(=O)OC [Dimethyl phthalate] | > 46
CCCCCCCCOC(=O)c1ccccc1C(=O)OCCCCCCCC [Dioctyl phthalate] | > 46
